Source: patent US20240325370A1, “THERAPEUTIC REGIMENS OF A DEGRADER OF BRD9” (FOGHORN THERAPEUTICS INC., priority 2021, published 2024)
Entries after “also recorded” stand apart in the source; their conditions may differ.

Tests used:
endogenous BRD9 = target: T1, endogenous BRD9 (Homo sapiens, UniProt Q9H8M2); experiment: MSD assay of endogenous BRD9 degradation in synovial sarcoma cell lines; type: cell-based; conditions: 6 hours, estimated from racemate compound D1 (about 50% active enantiomer)
T1 sequence (Q9H8M2 1-597): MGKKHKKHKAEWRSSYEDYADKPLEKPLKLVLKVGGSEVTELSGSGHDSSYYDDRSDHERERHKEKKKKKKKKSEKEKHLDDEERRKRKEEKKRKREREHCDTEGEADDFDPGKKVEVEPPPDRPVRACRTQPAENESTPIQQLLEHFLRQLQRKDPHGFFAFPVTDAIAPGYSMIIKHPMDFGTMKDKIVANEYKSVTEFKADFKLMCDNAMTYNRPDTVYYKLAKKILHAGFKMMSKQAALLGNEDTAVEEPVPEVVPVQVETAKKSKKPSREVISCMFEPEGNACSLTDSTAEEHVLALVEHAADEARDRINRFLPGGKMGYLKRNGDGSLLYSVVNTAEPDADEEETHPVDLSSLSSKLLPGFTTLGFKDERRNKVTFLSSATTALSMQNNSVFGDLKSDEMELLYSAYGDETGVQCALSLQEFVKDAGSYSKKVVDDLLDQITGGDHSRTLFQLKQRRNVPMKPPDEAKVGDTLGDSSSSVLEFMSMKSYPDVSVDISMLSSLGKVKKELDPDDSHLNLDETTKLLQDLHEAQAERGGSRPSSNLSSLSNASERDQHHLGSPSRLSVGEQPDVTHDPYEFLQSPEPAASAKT

BRD9 [1] = target: T2, BRD9 (Homo sapiens, UniProt Q9H8M2); experiment: Drug washout and competition experiments in SYO-1 cells; conditions: two washouts, five washes per washout step
T2 sequence (Q9H8M2 1-597): T1 sequence (Q9H8M2 1-597)
Protocol: Drug Washout and Competition Experiments in SYO-1 Cells.
SYO-1 cells grown in flasks to log phase growth were washed with PBS and dissociated by adding TrypLE™ Express. The collected cells were resuspended in DMEM (high glucose, with GlutaMAX™ supplement) with 10% FBS.
Cells were collected using fresh media and measured for cell number. 1×10^6 cells were harvested for the 24-hour treatment sample and frozen down at −80° C. The remainder of the treated cells were washed five times with 10 ml fresh media, through sequential rounds of resuspension and centrifugation at 1,000 rpm for 5 minutes.
Another 1×10^6 cells were harvested for the 24-hour post-washout sample and frozen down at −80° C. The remainder of the cells were split off evenly into two separate 100 mm petri dishes and resuspended in 10 ml culture medium in each plate.
The remaining cells of each treatment group were washed five times with 10 mL fresh media. Cells were then seeded evenly into 6-well plates in 2 ml fresh media per well. 2 wells were allocated per collection time point.

BRD9 [2] = target: T2, BRD9; experiment: Tumor BRD9 modulation after each regimen, SYO-1 xenograft (western blot); type: in vivo, mice; parameters: from tissue; host or cells: SYO-1 xenograft tumours in BALB/c nude or NOD SCID mice
Source text: The racemate, compound D1, which consists of ˜50% compound S-D1, was utilized in an SYO-1 (a synovial sarcoma xenograft) model to explore if similar efficacy is achievable with an intermittent dosing schedule. Due to technical feasibility and animal-welfare considerations, intraperitoneal (IP) administration was chosen over the IV route. […] Groups of female SYO-1 tumor-bearing NOD SCID mice (n=8/group) were intraperitoneally administered with vehicle or compound D1 for 21 days. Compound D1 was formulated as a suspension in 10% DMSO/40% PEG400/50% deionized water, volume/volume (v/v). […] To determine the level of modulation of BRD9 after each regimen, mice (n=4 mice/time-point) were euthanized and tumor samples were collected at different timepoints post-last dose (Day 21). […] BRD9 levels were assessed at 24, 72 and 168 hours (expected time points of trough plasma concentrations) for QD, BIW, and QW regimens respectively, as indicated in Table 8. Samples were analyzed using Western blot method.

BRD9 [3] = target: T2, BRD9; experiment: Kinetic experiments of BRD9 degradation in synovial sarcoma cell lines; type: cell-based
Protocol: Kinetic Experiments in Synovial Sarcoma Cell Lines. To assess the rate of BRD9 protein degradation following treatment with compound D1, this compound was administered at a steady dose of 15 nM over multiple time points in SYO-1 and ASKA synovial sarcoma cell lines. After cell treatment, BRD9 protein levels were determined by western blot analyses.
Cells grown in flasks to log phase growth were washed with PBS and dissociated by adding TrypLE™ Express. Two wells were allocated per sample. Plates were incubated at 37° C. with 5% CO2 overnight.
The next day, cells were treated with 15 nM compound D1, with the final DMSO content of 0.1% (v/v) matching the untreated control. After the designated incubation periods for each sample, as indicated in FIGS. 29A and 29B, cells were harvested, resuspended in PBS, and centrifuged at 5,000 rpm for 5 minutes. After being washed twice with PBS, the resulting cell pellets were stored at −80° C.
Cells were processed for western blot analysis as follows (see Table 15 for specific conditions). Cell lysates were prepared by resuspending thawed pellets in RIPA lysis buffer with protease and phosphatase inhibitors and DNA nuclease enzymes. […] Samples were then analysed for total protein using BCA protein quantitation assay following manufacturer's instructions. […]

BRD9 [4] = target: T2, BRD9; experiment: BRD9 degradation in synovial sarcoma tumor in vivo (western blot); parameters: from tissue; host or cells: SYO-1 xenograft tumours in BALB/c nude or NOD SCID mice; species or system mice; conditions: 1 mg/kg i.p. for 4 weeks; up to 168 hours after dose
Protocol: Method: Mice were treated with D1, 1 mg/kg, i.p. for 4 weeks. Mice were then euthanized, and tumors were collected at 8 hours, 72 hours, and 168 hours post last dose. Tumors were lysed with 1×RIPA lysis buffer (Boston BioProducts, BP-115D) with protease and phosphatase protein inhibitor (Roche Applied Science #04906837001 & 05892791001). Equal amounts of lysate (30 ug) were loaded in 4-12% Bis-Tris Midi Protein Gels in 1×MOPS buffer; samples ran at 120 V for 120 minutes. Protein was transferred to membrane with TransBlot at 250 mA for 150 minutes, and then membranes were blocked with Odyssey blocking buffer for 1 hour at room temperature. Membranes were hybridized overnight in cold room with primary antibodies. Images acquired using Li-COR imaging system (Li-COR Biotechnology, Lincoln, Nebraska).

Q: How did the DC50 (endogenous BRD9) turn out when `COc1cc(-c2cn(C)c(=O)c3cnc(N4CCC4)cc23)cc(OC)c1CN1CCC(CN2CCC3(CC2)CN(c2ccc4c(c2)C(=O)N([C@H]2CCC(=O)NC2=O)C4)C3)CC1` (single isomer, unassigned) [Compound S-D1] was run?
A: 25 to 100 pM

Q: What about the “BRD9 degradation after second washout (removal of binding competitors)” value (BRD9 [1]) of the same compound?
A: retention of the BRD9-suppressive activity; also recorded: degraded again

Q: How did the “BRD9 PD effect in tumor at Cmin” value (BRD9 [2]; 0.35 mg/kg BIW or 0.7 mg/kg QW treatment) turn out when `COc1cc(-c2cn(C)c(=O)c3cnc(N4CCC4)cc23)cc(OC)c1CN1CCC(CN2CCC3(CC2)CN(c2ccc4c(c2)C(=O)N(C2CCC(=O)NC2=O)C4)C3)CC1` (racemic) [Compound D1, 3-[6-(7-[[1-([4-[6-(azetidin-1-yl)-2-methyl-1-oxo-2,7-naphthyridin-4-yl]-2,6-dimethoxyphenyl]methyl)piperidin-4-yl]methyl]-2,7-diazaspiro[3.5]nonan-2-yl)-1-oxo-3H-isoindol-2-yl]piperidine-2,6-dione] was run?
A: intermediate PD effect

Q: What about the “BRD9 depletion in tumor at Cmin” value (BRD9 [2]; 3.5 mg/kg QW and 0.5 mg/kg QD treated groups) of the same compound?
A: Nearly complete BRD9 depletion

Q: And the BRD9 protein degradation (BRD9 [3]; ASKA cells, upon 30 minutes of treatment, 15 nM)?
A: nearly complete BRD9 protein degradation

Q: What about the “time of treatment to markedly deplete BRD9 protein” value (BRD9 [3]; SYO-1 cells, 100-fold of NanoLuc DC50 (15 nM)) of the same compound?
A: ≤ 2 h

Q: And the “degradation of BRD9 in tumor” value (BRD9 [4])?
A: complete degradation of BRD9 target; also recorded: BRD9 inhibition
